{"source": "patent US4826845A", "about": "“3(2H)-pyridazinones and pharmaceutical compositions thereof” (Richter Gedeon Vegyeszeti Gyar T.R., priority 1985, dated 1989)", "key": {"[1]": {"tested_on": "pre- and postsynaptic alpha receptors", "experiment": "Action on the pre- and postsynaptic adrenergic alpha receptors on the stimulated mouse vas deferens", "assay_type": "cell-based", "description": "The method of Hughes et al. [Brit. J. Phamacol. 51, pp. 139-140P (1975)] was used. The preparations suspended in a modified Krebs solution at 31° C. were excited by the field stimulation method [rectangular paired impulses with 1 msec interval, supramaximal potential (70 to 75 V=8 to 9 V/cm) and 100 msec impulse interval, pairs repeated in each 10 sec]. After stimulation, norepinephrine (NE) was dropped into the organ bath and a dose-response curve was taken up. Thus, the effect of both the endogenous norepinephrine liberated by stimulation and the exogenous norepinephrine could be studied before and after adding the substance to be tested."}, "[2]": {"biological_target": "T1, potential-mediated calcium channel (Rattus norvegicus, UniProt P22002)", "T1 construct": "from tissue; host or cells: isolated rat portal vein", "T1 sequence (P22002 whole entry)": "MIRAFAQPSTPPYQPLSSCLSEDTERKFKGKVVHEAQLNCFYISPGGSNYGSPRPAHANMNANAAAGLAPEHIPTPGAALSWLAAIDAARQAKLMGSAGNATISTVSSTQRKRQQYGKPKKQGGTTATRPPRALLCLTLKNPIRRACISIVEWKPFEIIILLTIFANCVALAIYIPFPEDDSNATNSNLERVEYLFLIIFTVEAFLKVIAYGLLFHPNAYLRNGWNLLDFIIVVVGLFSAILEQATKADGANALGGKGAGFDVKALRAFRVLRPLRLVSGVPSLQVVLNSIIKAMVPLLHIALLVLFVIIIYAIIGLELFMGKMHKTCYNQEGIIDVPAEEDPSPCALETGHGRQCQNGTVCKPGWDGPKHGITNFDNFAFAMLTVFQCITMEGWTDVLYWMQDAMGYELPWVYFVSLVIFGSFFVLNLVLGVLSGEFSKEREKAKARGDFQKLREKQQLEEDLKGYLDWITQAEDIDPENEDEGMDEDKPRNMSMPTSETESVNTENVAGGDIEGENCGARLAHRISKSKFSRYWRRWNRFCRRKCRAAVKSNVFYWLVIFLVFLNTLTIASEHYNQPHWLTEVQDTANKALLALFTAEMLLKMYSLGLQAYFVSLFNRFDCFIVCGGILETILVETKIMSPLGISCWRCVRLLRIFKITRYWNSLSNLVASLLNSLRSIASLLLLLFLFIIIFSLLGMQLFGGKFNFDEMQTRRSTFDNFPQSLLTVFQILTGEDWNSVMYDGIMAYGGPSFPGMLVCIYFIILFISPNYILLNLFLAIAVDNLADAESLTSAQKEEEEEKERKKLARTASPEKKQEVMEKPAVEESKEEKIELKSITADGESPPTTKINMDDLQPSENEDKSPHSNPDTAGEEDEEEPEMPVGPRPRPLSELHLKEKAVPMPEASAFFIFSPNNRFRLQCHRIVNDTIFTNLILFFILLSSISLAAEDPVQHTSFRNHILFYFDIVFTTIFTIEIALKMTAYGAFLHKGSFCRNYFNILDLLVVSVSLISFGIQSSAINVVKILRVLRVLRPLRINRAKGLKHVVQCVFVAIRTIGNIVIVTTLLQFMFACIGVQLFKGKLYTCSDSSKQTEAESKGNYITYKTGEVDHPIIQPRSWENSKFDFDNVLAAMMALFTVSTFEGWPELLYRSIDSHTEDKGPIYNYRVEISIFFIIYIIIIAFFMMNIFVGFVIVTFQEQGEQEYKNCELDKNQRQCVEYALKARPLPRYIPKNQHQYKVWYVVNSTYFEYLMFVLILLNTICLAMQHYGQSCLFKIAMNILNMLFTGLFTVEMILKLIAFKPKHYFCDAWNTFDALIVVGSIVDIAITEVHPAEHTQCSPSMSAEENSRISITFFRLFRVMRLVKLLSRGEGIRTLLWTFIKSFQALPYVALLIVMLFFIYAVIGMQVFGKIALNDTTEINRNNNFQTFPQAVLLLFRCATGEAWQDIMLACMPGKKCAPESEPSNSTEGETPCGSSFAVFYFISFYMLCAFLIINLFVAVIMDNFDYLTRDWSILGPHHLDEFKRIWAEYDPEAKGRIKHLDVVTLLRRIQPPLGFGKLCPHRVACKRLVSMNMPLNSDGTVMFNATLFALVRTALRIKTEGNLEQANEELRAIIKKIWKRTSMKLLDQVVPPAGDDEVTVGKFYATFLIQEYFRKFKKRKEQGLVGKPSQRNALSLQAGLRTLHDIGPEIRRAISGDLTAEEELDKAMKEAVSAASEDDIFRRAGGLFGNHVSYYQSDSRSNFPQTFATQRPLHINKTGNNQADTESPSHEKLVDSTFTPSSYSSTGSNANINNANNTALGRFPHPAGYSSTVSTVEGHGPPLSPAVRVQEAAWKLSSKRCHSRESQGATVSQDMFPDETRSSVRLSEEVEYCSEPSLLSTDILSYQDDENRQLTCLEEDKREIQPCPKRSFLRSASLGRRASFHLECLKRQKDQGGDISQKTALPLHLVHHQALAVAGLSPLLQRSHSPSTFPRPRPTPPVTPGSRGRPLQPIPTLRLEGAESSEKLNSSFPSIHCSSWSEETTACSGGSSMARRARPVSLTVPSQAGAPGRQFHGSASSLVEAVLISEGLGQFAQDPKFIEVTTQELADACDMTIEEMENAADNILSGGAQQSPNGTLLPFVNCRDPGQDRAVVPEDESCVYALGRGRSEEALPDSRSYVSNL", "T1 sequence (P54290 25-944 partner limits assumed)": "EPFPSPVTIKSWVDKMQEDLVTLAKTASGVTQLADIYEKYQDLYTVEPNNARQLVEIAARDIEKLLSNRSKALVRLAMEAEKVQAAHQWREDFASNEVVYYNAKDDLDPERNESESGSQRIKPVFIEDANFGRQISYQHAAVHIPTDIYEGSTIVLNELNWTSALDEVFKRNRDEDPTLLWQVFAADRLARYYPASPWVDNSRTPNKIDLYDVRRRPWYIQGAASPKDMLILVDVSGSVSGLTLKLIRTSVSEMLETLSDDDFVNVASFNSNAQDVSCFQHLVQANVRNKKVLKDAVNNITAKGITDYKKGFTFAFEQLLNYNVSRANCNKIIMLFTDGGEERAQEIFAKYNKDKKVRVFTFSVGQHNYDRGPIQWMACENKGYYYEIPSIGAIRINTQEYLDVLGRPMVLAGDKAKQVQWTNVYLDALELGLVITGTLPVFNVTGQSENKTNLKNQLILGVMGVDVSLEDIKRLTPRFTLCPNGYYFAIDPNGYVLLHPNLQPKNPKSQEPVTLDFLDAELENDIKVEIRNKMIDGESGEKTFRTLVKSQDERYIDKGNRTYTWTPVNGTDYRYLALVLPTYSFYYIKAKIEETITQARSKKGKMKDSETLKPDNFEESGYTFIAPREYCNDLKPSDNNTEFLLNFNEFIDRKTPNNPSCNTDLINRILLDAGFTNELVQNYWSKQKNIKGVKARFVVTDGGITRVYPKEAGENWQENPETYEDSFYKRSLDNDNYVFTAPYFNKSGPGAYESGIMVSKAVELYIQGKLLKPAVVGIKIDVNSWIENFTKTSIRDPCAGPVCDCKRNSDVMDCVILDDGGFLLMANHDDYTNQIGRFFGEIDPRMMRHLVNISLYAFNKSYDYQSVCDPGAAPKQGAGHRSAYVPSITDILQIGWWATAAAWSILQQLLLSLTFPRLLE", "T1 sequence (P54290 945-1091 partner limits assumed)": "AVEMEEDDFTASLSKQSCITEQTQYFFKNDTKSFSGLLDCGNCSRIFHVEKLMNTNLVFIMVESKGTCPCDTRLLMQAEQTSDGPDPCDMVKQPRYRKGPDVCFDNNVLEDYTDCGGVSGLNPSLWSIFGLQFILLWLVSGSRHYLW", "experiment": "Calcium-antagonism on isolated portal vein: potential-mediated calcium channel", "assay_type": "cell-based", "conditions": "rat portal vein, 80 millimoles KCl, 37° C.; read-out: Inhibition of the calcium channel, potential-mediated, IC50", "description": "The calcium-antagonism of the compounds of the invention was studied on an isolated vessel preparation based on the work of M. Fiol de Cuneo et al. [Arch. Int. Pharmacodyn.\nMale CFY rats with a body-weight of 150 to 200 g were bled by decapitation and the portal vein was immediately prepared starting from the hepatic portal. The vessel was longitudinally incised, bound to a transducer registering the contractions and incubated under a tension of 1 g at 37° C. in a calcium-free Krebs-Ringer bicarbonate solution aerated with carbogen. After an equilibration lasting for 30 minutes, the functioning of the receptor-mediated and the K^+ -depolarisation-mediated calcium channels, respectively, were investigated.\nFor investigating the potential-mediated calcium channel, the vein placed in the calcium-free Krebs-Ringer solution was washed by adding and then by removing 80 millimoles of potassium chloride while maintaining the isotania until no contraction appeared on repeatedly adding potassium chloride.\nAll measurements were carried out at 37° C. while bubbling through carbogen."}, "conscious SH rats": {"tested_on": "conscious SH rats", "experiment": "Antihypertensive effect on conscious SH rats after acute oral treatment", "assay_type": "in vivo, rat", "excerpt": "(§1) These experiments were accomplished on conscious spontaneously hypertensive (SH) and renally hypertensive rats.\n(§2) The systolic blood pressure and heart rate of the animals were indirectly measured by using the tail-cuff method by means of a 5- channel automatized equipment."}, "[3]": {"tested_on": "conscious renal hypertensive rats", "experiment": "Antihypertensive effect on conscious renal hypertensive rats after acute oral treatment", "assay_type": "in vivo, rat", "excerpt": "as §1, §2"}}, "note": "Counter-ions that a name gives are not always drawn."}
{"smiles": "O=c1cccnn1CCCNCC1COc2ccccc2O1", "note": "(stereo not drawn) [Example 3 (or 12), 2-[3-(benzo[1,4]dioxan-2-yl-methylamino)-1-propyl]-3(2H)-pyridazinone hydrochloride]", "values": [{"measurement": "Inhibition of the stimulation", "setting": "[1]; concentration 10^-7 mole", "result": 0, "unit": "%"}, {"measurement": "Inhibition of the stimulation", "setting": "[1]; concentration 10^-8 mole", "result": 0, "unit": "%"}, {"measurement": "IC50", "setting": "[2]", "result": 500, "unit": "nM"}, {"measurement": "hypotension up to the 5th hour", "setting": "conscious SH rats; SH rats, 6.25 mg/kg p.o., up to 5th hour", "result": 16, "unit": "%"}, {"measurement": "antihypertensive effect", "setting": "conscious SH rats; SH rats, 6.25 mg/kg p.o., within one hour", "result": 29, "unit": "%"}, {"measurement": "dose dependence of level and duration of the antihypertensive effect (in words)", "setting": "conscious SH rats; SH rats, 6.25, 12.5 or […] p.o.", "result": "increased by increasing the doses"}, {"measurement": "heart rate alteration (in words)", "setting": "conscious SH rats; SH rats, p.o.", "result": "no significant heart rate alteration"}, {"measurement": "maximum antihypertensive effect", "setting": "[3]; 3.125 mg/kg p.o.", "result": 16, "unit": "%"}, {"measurement": "maximum antihypertensive effect", "setting": "[3]; 12.5 mg/kg p.o.", "result": 24, "unit": "%"}, {"measurement": "antihypertensive effect in the 8th hour (in words)", "setting": "[3]; 25 mg/kg p.o., 8th hour", "result": "significant even in the 8th hour"}, {"measurement": "tachycardia", "setting": "[3]; p.o.", "result": 18, "unit": "%"}, {"measurement": "time of disappearance of tachycardia (in words)", "setting": "[3]; p.o.", "result": "disappeared in the 2nd to 3rd hours after the treatment"}]}
